Laboratory results as given in patent US12507703B2, “Methods, devices and compositions for preserving human milk” (The Trustees of Princeton University, priority 2023, dated 2025).
“And” between values parts separate entries of the source, which are not always exact repeats. Equal values may be shown once.

tested on: lipase; assay: Lipase/lipolysis assay (EnzChek Lipase Substrate, quenched BODIPY-fatty acid conjugate) on stored human milk; further: test concentration or dose not given here

SMILES | Lipase (RFU)
O=C1C[C@@H](c2ccc(O)cc2)Oc2cc(O[C@@H]3O[C@H](CO)[C@@H](O)[C@H](O)[C@H]3O)ccc21 [Neoliquiritin] | 772.4579 RFU
COC(=O)[C@H](Cc1ccccc1)NC(=O)[C@H](CC(=O)O)NCCC(C)(C)C [Neotame] | 994.7737 RFU
COc1c(O)cc2oc(-c3ccc(O)c(O)c3)cc(=O)c2c1O [Nepetin] | 666.0077 RFU
CC(=O)NCCCC[C@H](N)C(=O)O [Nepsilon-Acetyl-L-lysine] | 1188.891 RFU
C[C@@H]1O[C@@H](OC[C@H]2O[C@@H](Oc3c(-c4ccc(O)cc4)oc4cc(O)cc(O)c4c3=O)[C@H](O)[C@@H](O)[C@@H]2O)[C@H](O)[C@H](O)[C@H]1O [Nicotiflorin] | 810.1075 RFU
NC(=O)c1ccc[n+]([C@@H]2O[C@H](CO)[C@@H](O)[C@H]2O)c1.[Cl-] [Nicotinamide riboside (chloride)] | 991.823 RFU
N[C@@H](CCC(=O)N[C@@H](CSN=O)C(=O)NCC(=O)O)C(=O)O [Nitrosoglutathione] | 688.3783 RFU
CC(C)(O)[C@H]1Cc2cc3ccc(=O)oc3cc2O1 [Nodakenetin] | 882.2828 RFU
CC(=O)O[C@H]1CC(=O)OC(C)(C)[C@@H]2CC(=O)[C@]3(C)[C@H](CC[C@@]4(C)[C@H](c5ccoc5)OC(=O)[C@H]5O[C@]543)[C@@]12C [Nomilin] | 989.5541 RFU
CCCCCCCCC(=O)NCc1ccc(O)c(OC)c1 [Nonivamide] | 911.9923 RFU and 1070.28 RFU
c1ccc2c(c1)[nH]c1cnccc12 [Norharmane] | 960.1337 RFU
COc1cc2c(cc1O)C[C@@H]1NCCc3cc(OC)c(O)c-2c31 [Norisoboldine] | 812.7907 RFU
CC(C)=CCC[C@](C)(O[C@@H]1O[C@H](CO[C@@H]2O[C@H](CO)[C@@H](O)[C@H](O)[C@H]2O)[C@@H](O)[C@H](O)[C@H]1O)[C@H]1CC[C@]2(C)[C@@H]1[C@H](O)C[C@@H]1[C@@]3(C)CC[C@H](O[C@@H]4O[C@H](CO)[C@@H](O)[C@H](O)[C@H]4O[C@@H]4O[C@H](CO)[C@@H](O)[C@H](O)[C@H]4O[C@@H]4OC[C@@H](O)[C@H](O)[C@H]4O)C(C)(C)[C@@H]3CC[C@]12C [Notoginsenoside Fa] | 1075.493 RFU
CC(C)=CCC[C@](C)(O[C@@H]1O[C@H](CO[C@@H]2OC[C@@H](O)[C@H](O)[C@H]2O)[C@@H](O)[C@H](O)[C@H]1O)[C@H]1CC[C@]2(C)[C@@H]1[C@H](O)C[C@@H]1[C@@]3(C)CC[C@H](O[C@@H]4O[C@H](CO)[C@@H](O)[C@H](O)[C@H]4O[C@@H]4O[C@H](CO)[C@@H](O)[C@H](O)[C@H]4O[C@@H]4OC[C@@H](O)[C@H](O)[C@H]4O)C(C)(C)[C@@H]3CC[C@]12C [Notoginsenoside Fc] | 1131.911 RFU
CC(C)=CCC[C@](C)(O[C@@H]1O[C@H](CO)[C@@H](O)[C@H](O)[C@H]1O)[C@H]1CC[C@]2(C)[C@@H]1[C@H](O)C[C@@H]1[C@@]3(C)CC[C@H](O)C(C)(C)[C@@H]3[C@@H](O[C@@H]3O[C@H](CO)[C@@H](O)[C@H](O)[C@H]3O[C@@H]3OC[C@@H](O)[C@H](O)[C@H]3O)C[C@]12C [Notoginsenoside R1] | 899.6021 RFU
CC(C)=CCC[C@](C)(O)[C@H]1CC[C@]2(C)[C@@H]1[C@H](O)C[C@@H]1[C@@]3(C)CC[C@H](O)C(C)(C)[C@@H]3[C@@H](O[C@@H]3O[C@H](CO)[C@@H](O)[C@H](O)[C@H]3O[C@@H]3OC[C@@H](O)[C@H](O)[C@H]3O)C[C@]12C [Notoginsenoside R2] | 955.4855 RFU
Cn1cc(C(N)=O)ccc1=O [Nudifloramide] | 993.1021 RFU
C[N+](C)(C)CCCC[C@H](N)C(=O)O [Nε,Nε,Nε-Trimethyllysine (chloride)] | 1143.924 RFU
CC(C(=O)c1ccc(O)cc1O)c1ccc(O)cc1 (centres unmarked) [O-Desmethylangolensin] | 864.3847 RFU
NCCOP(=O)(O)O [O-Phosphoryl-Ethanolamine] | 1247.866 RFU
CC(CCC1(O)OC2CC3C4CCC5CC(OC6OC(CO)C(O)C(O)C6OC6OC(CO)C(O)C(O)C6O)CCC5(C)C4CCC3(C)C2C1C)COC1OC(CO)C(O)C(O)C1O (centres unmarked) [Officinalisinin I] | 937.9671 RFU
CCCCCCCC/C=C\CCCCCCCC(=O)O[C@H](CC(=O)[O-])C[N+](C)(C)C [Oleoylcarnitine] | 870.8673 RFU

SMILES | Lipase (RFU)
O=c1cc(-c2ccc(O)c(O)c2)oc2c([C@@H]3O[C@H](CO)[C@@H](O)[C@H](O)[C@H]3O)c(O)cc(O)c12 [Orientin] | 715.9231 RFU
CCCCCCCCCCC[C@@H](C[C@@H]1OC(=O)[C@H]1CCCCCC)OC(=O)[C@H](CC(C)C)NC=O [Orlistat, reference compound] | 234.506 RFU
CC(C)=CCc1c(O)ccc2ccc(=O)oc12 [Osthenol] | 798.6222 RFU
C[C@@H]1O[C@@H](O[C@H]2C[C@@H](O)[C@]3(CO)[C@H]4[C@H](O)C[C@]5(C)[C@@H](C6=CC(=O)OC6)CC[C@]5(O)[C@@H]4CC[C@]3(O)C2)[C@H](O)[C@H](O)[C@H]1O.O.O.O.O.O.O.O.O [Ouabain (Octahydrate)] | 901.7077 RFU
O=C(O)CCCC(=O)C(=O)O [Oxoadipic acid] | 732.376 RFU
OC[C@H]1O[C@H](OC[C@H]2OC(O)(CO)[C@@H](O)[C@@H]2O)[C@H](O)[C@@H](O)[C@@H]1O (some centres unmarked) [Palatinose] | 803.211 RFU
O=c1c(O[C@@H]2O[C@H](CO)[C@H](O)[C@H](O)[C@H]2O[C@@H]2O[C@H](CO)[C@@H](O)[C@H](O)[C@H]2O)c(-c2ccc(O)cc2)oc2cc(O)cc(O)c12 [Panasenoside] | 1093.409 RFU
C=C(C)[C@@H](O)COc1c2ccoc2cc2oc(=O)ccc12 [Pangelin] | 581.7367 RFU
CCCCCCCC(=O)CCc1ccc(O)c(OC)c1 [Paradol] | 1060.26 RFU and 1109.933 RFU
O=C1C=C2C(=CCOC2O)O1 (centres unmarked) [Patulin] | 1145.028 RFU
CCCCCC/C=C\CCCCCCCCCCCC(=O)O [Paullinic acid] | 1192.519 RFU
CCCCC/C=C/C=C/C(=O)NCC(C)C [Pellitorine] | 785.2318 RFU and 741.5651 RFU
COc1cc(O)c2c(c1)OC(c1ccc(OC)c(O)c1)CC2=O (centres unmarked) [Persicogenin] | 1028.526 RFU
CCCCCCCCCCC/C=C\CCCCC(=O)O [Petroselinic acid] | 886.6723 RFU
COc1cc(-c2[o+]c3cc(O)cc(O)c3cc2O)cc(O)c1O.[Cl-] [Petunidin (chloride)] | 1018.887 RFU
c1ccc2c(c1)Nc1ccccc1S2 [Phenothiazine] | 725.1361 RFU
O=C(O)COc1ccccc1 [Phenoxyacetic acid] | 872.4796 RFU and 824.9859 RFU
CN(CC(=O)O)C(=N)NP(=O)(O)O [Phosphocreatine] | 915.1867 RFU
C[N+](C)(C)CCOP(=O)(O)O [Phosphoryl Choline] | 931.0385 RFU
C[N+](C)(C)CCOP(=O)(O)O.[Cl-] [Phosphorylcholine (chloride)] | 831.0181 RFU
C[N+](C)(C)CCOP(=O)(O)O [Phosphorylcholine] | 1107.376 RFU
CC1=C(C/C=C(\C)CCC[C@H](C)CCC[C@H](C)CCCC(C)C)C(=O)c2ccccc2C1=O [Phylloquinone] | 1038.691 RFU
